Reference: patent US11957684B2, “Treatment of heavy menstrual bleeding associated with uterine fibroids” (Sumitomo Pharma Switzerland GmbH, priority 2016, dated 2024)

Tested on: endometriosis
Test: Example 7 12-week study in endometriosis: efficacy (VAS, B&B, EHP-30)
Type: in vivo, human
Conditions: 3.75 mg sc/4 wk
Description: Secondary endpoints included VAS score for pelvic pain, dysmenorrhea, and dyspareunia during the treatment period. […] Subjects recorded in the patient diary every day until the end of treatment. […] Designated examinations and evaluations were performed at each visit. As used in the examples, the VAS score was evaluated using a 100 mm scale. For pain intensity, the scale was anchored by “no pain” (score of 0) and “pain as bad as you can imagine” (score of 100). […] The above items were evaluated using a patient diary that was distributed by the sponsor. Subjects filled out the patient diary every day during the treatment period or until early termination. If taking prohibited analgesics, subjects recorded this fact in the patient diary along with the accompanying pain symptoms before use of analgesics. As used in the examples, pain during menstruation and pelvic pain unrelated to menstruation were evaluated using scores on the M-B&B and B&B. The M-B&B scores were recorded by subjects on the patient diary supplied by the sponsor. Subjects filled out the patient diary every day during the treatment period or until early termination. If taking prohibited analgesics, subjects recorded this fact in the patient diary along with the accompanying pain symptoms before use of analgesics. The investigator or subinvestigator assessed each patient's pain through interviews and filled out a B&B once a month. The items that were assessed are shown below. The M-B&B score included: dysmenorrhea (severe, moderate, mild, no pain, or no menstruation); pelvic pain (severe, moderate, mild, or no pain); deep dyspareunia (severe, moderate, mild, no pain, or no intercourse). The B&B score included: dysmenorrhea (severe, moderate, mild, none, or not applicable); dyspareunia (severe, moderate, mild, none, or not applicable); pelvic pain (severe, moderate, mild, or none); pelvic tenderness (severe, moderate, mild, or none); and induration (severe, moderate, mild, or none). As used in the examples, the EHP-30 score was obtained by subjects assessing and recording their own QOL using the EHP-30 questionnaire.

CCNC(=O)[C@@H]1CCCN1C(=O)[C@H](CCCNC(=N)N)NC(=O)[C@H](CC(C)C)NC(=O)[C@@H](CC(C)C)NC(=O)[C@H](Cc1ccc(O)cc1)NC(=O)[C@H](CO)NC(=O)[C@H](Cc1c[nH]c2ccccc12)NC(=O)[C@H](Cc1c[nH]cn1)NC(=O)[C@@H]1CCC(=O)N1 [leuprolide acetate, reference compound]
Physician B&B, dysmenorrhea (Week 12): −2.1
Physician B&B, dyspareunia (Week 12): −0.6
Physician B&B, non-menstrual pelvic pain (Week 12): −1.1
change from baseline in EHP-30, Control and powerlessness (Week 12): −19.6
change from baseline in EHP-30, Self-image (Week 12): −6.1
change from baseline in EHP-30, emotional well-being (Week 12): −8.8
change from baseline in EHP-30, pain (Week 12): −23.2
change from baseline in EHP-30, social support (Week 12): −6.8
change from baseline in mean VAS score, pelvic pain (end of 12-wk treatment period): −10.460±10.3013 mm
Modified (patient) B&B, deep dyspareunia (end of treatment): −0.36
Modified (patient) B&B, dysmenorrhea (end of treatment): −1.16
Modified (patient) B&B, non-menstrual pelvic pain (end of treatment): −0.41
change from baseline in proportion of days with usage of analgesics (end of treatment): −8.3
